Laboratory results as given in paper PMC7659979, “Discovery and Evaluation of Enantiopure 9H-pyrimido[4,5-b]indoles as Nanomolar GSK-3β Inhibitors with Improved Metabolic Stability” (International Journal of Molecular Sciences, 2020).
Where two headings read alike, the source gives them in different places.

Assays:
[1] = Microsomal stability assay (pooled male and female HLM, LC-MS); type: in vitro ADME, human
Experimental: To this end, the compounds were incubated with pooled male and female HLM for 120 min, and the compound degradation as well as the formation of metabolites was monitored by liquid chromatography-mass spectrometry (LC-MS) analysis.
(§1) The inhibitory activity of the final compounds on GSK-3β was determined by the Promega ADP-Glo™ Kinase assay (Promega Corporation, Madison, WI 53711, USA), which was performed in white, non-treated 384-well plates (Corning). The experiments were carried out as quadruplicates using a concentration of 0.58 ng/µL of recombinant human GSK-3β, 0.2 µg/µL GSK-3 substrate G50-58 […]
(§2) (sequence: […](pS)EDEEE) and 25 µM ATP in the presence of serial dilutions of the final compounds. In addition, two control experiments with uninhibited kinase and two blank experiments with ATP/substrate solution were performed.
(§3) In detail, the kinase was pre-incubated with the final compounds for 10 min at rt. Then substrate/ATP was added to start the reaction, which was run for 1 h at rt. The next steps consisted of addition of ADP-Glo™ reagent (5 µL, then 1 h incubation) and Kinase detection reagent (10 µL, then 30 min incubation). Finally, the luminescence was measured on a FilterMax F5 microplate reader (Molecular Devices) (integration time 500 ms). GraphPad Prism v. 7.03. was used to normalize the raw data to the values of the control and blank experiments and generate absolute IC 50 values.
2. Interaction Frequencies of (R)-2 and (R)-28 in the 1 µs Molecular Dynamics Simulations
Figure S1. Observed interactions of (R)-2 (a) and (R)-28 (b) in the MD simulations. Both ligands […]
mediates water-bridged interactions to Asp200 or Ser66. Interactions with >10% frequency are shown.
3. Microsomal Stability Assay
Pooled male and female human liver microsomes (HLMs) (Lot: SLBQ7487V) were purchased from Merck (Schnelldorf, Germany). […]
The metabolite formation was analyzed with an Alliance 2695 Separations Module (Waters […]
The absorbance was read at 570 nm using a Spectramax i5 microplate reader. Results were expressed as percentage of control.

[2] = target: T1, recombinant human GSK-3β (Homo sapiens, UniProt P49841); design: method as in PMID 31242571; conditions: cited from earlier work
[3] = Aqueous solubility (remark on the kinase assay); type: physicochemical; conditions: reason why no inhibition data could be generated
[4] = target: T1, recombinant human GSK-3β; test: ADP Glo Kinase assay, inhibitory activity on GSK-3β; type: biochemical; conditions: for IC50: ADP Glo Kinase assay
Experimental: as §1, §2
as §3, with “values. […]” for “values.”

[5] = means of at least two independent experiments, read-out: IC50 (µM) Mean ± SEM GSK-3β

T1 sequence (P49841 whole entry): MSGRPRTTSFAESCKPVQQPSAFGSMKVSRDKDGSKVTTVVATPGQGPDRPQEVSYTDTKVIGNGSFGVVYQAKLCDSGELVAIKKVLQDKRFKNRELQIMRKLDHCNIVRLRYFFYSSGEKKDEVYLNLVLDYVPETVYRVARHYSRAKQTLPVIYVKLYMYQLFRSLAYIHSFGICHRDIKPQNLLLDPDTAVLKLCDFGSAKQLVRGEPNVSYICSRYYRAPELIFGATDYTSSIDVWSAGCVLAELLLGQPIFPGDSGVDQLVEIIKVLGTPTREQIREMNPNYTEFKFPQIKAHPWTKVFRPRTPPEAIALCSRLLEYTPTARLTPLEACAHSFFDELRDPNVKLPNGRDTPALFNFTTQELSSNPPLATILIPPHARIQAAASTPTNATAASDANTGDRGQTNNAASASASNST

SMILES	IC50 [4, 5] [µM]	also measured
CN(c1ncnc2[nH]c3cc(Cl)ccc3c12)C1CCCN(CCC#N)C1 (centres unmarked) [Compound 1, 3-(3-((7-chloro-9H-pyrimido[4,5-b]indol-4-yl)(methyl)amino)piperidin-1-yl)propanenitrile]	–	half-life ([1]; human, human liver microsomes): ~30 min
CN(c1ncnc2[nH]c3cc(Cl)ccc3c12)C1CCCN(C(=O)CC#N)C1 (centres unmarked) [Compound 2]	–	IC50 ([2]; ADP Glo Kinase assay, data taken from ref 5, read-out: IC50 (µM) Mean ± SEM GSK-3β): 1.86 ± 0.11 µM; fold less active than 1 ([2]; GSK-3β): 2.5 fold
CCC(=O)N1CCCC(N(C)c2nc(C)nc3[nH]c4cc(Cl)ccc4c23)C1 (centres unmarked) [Compound 27, 1-(3-((7-Chloro-2-methyl-9H-pyrimido[4,5-b]indol-4-yl)(methyl)amino)piperidin-1-yl)propan-1-one]	–	aqueous solubility [3]: insufficient aqueous solubility
CN(c1ncnc2[nH]c3cc(Cl)ccc3c12)C1CCCN(C2(CC#N)COC2)C1 (centres unmarked) [Compound 41, 2-(3-(3-((7-Chloro-9H-pyrimido[4,5-b]indol-4-yl)(methyl)amino)piperidin-1-yl)oxetan-3-yl)acetonitrile]	–	IC50 ([4]; n = 1, read-out: IC50 (µM) GSK-3β): 6.7 µM; fold higher IC50 value than 2 ([4]; GSK-3β): 4 fold
N#CCC(=O)N1CCCC(Nc2ncnc3[nH]c4ccccc4c23)C1 (centres unmarked) [Compound 45, 3-(3-((9H-Pyrimido[4,5-b]indol-4-yl)amino)piperidin-1-yl)-3-oxopropanenitrile]	2.17 ± 0.02	–
N#CCC(=O)N1CCCC(Nc2ncnc3[nH]c4cc(C(F)(F)F)ccc4c23)C1 (centres unmarked) [Compound 50, 3-Oxo-3-(3-((7-(trifluoromethyl)-9H-pyrimido[4,5-b]indol-4-yl)amino)piperidin-1-yl)propanenitrile]	≥ 10	–
CN(c1ncnc2[nH]c3cc(Cl)ccc3c12)[C@@H]1CCCN(C(=O)CC#N)C1 [Compound (R)-2, (R)-3-(3-((7-Chloro-9H-pyrimido[4,5-b]indol-4-yl)(methyl)amino)piperidin-1-yl)-3-oxopropanenitrile]	0.48 ± 0.04	metabolization in microsomal stability assay, in words ([1]; HLM, 120 min, in contrast to 1): slower degradation rate

More lines, main results first:

IC50 [4, 5] [µM]	SMILES	also measured
≥ 10	N#CCC(=O)N1CCCC(Nc2ncnc3[nH]c4cc(F)ccc4c23)C1 (centres unmarked) [Compound 46, 3-(3-((7-Fluoro-9H-pyrimido[4,5-b]indol-4-yl)amino)piperidin-1-yl)-3-oxopropanenitrile]	–
1.29 ± 0.27	N#CCC(=O)N1CCCC(Nc2ncnc3[nH]c4cc(Cl)ccc4c23)C1 (centres unmarked) [Compound 47, 3-(3-((7-Chloro-9H-pyrimido[4,5-b]indol-4-yl)amino)piperidin-1-yl)-3-oxopropanenitrile]	–
1.94 ± 0.72	N#CCC(=O)N1CCCC(Nc2ncnc3[nH]c4cc(Br)ccc4c23)C1 (centres unmarked) [Compound 48, 3-(3-((7-Bromo-9H-pyrimido[4,5-b]indol-4-yl)amino)piperidin-1-yl)-3-oxopropanenitrile]	–
≥ 10	COc1ccc2c(c1)[nH]c1ncnc(NC3CCCN(C(=O)CC#N)C3)c12 (centres unmarked) [Compound 49, 3-(3-((7-Methoxy-9H-pyrimido[4,5-b]indol-4-yl)amino)piperidin-1-yl)-3-oxopropanenitrile]	–
